# Reference: patent US20040266811A1, “Methods for inducing regeneration, remyelination, and hypermyelination of nervous tissue” (priority 2002, published 2004)
# Entries after “also recorded” stand apart in the source; their conditions may differ.
# Columns and labels:
# [1] = system: PC12 cells co-cultured on monolayers of Schwann cells; assay: GFP-PC12 / Schwann cell co-culture neurite outgrowth; assay type: cell-based, Sprague-Dawley rats (Schwann cells); settings: GM-284, 48 h
# Method: Wild-type and TrkA-overexpressing PC12 cells (Hempstead et al., Overexpression of the trk tyrosine kinase rapidly accelerates nerve growth factor-induced differentiation. Neuron, 9:883-96, 1992) were maintained in DMEM supplemented with 10% calf serum and 5% horse serum, the latter of which was also supplemented with 200 μg/ml G418 to maintain TrkA selection. Cultures were treated with 100 ng/ml NGF or the immunophilin ligands, or treated with Schwann-cell-conditioned medium supplemented with 5% horse serum, as indicated below. To generate GFP-expressing PC12 cells, a bicistronic pCX-bsr retroviral vector (Escalante et al., Phosphorylation of c-Crk II on the negative regulatory Tyr222 mediates nerve growth factor-induced cell spreading and morphogenesis. J. Biol. Chem., 275:24787-797, 2000), which drives expression of green fluorescent protein (GFP), was used to infect dividing PC12 cells.
# GFP-expressing virus was produced by lipofectamine-mediated transfection of 1.0 μg of pCX-bsr DNA, together with 1.0 μg of pC-Eco retroviral DNA, into the Bosc23 replication-incompetent ecotropic packaging line (Retromax™, Imgen), according to the manufacturer's protocols. The transfection medium was replaced with 10 ml of DMEM containing 10% fetal calf serum, for 24 h, and then collected and frozen at −70° C. The cells were re-fed with fresh DMEM (10 ml), and maintained for an additional 16 h. […]
# [2] = system: SCIP and Brn-5 expression in Schwann cells; assay: RNA (Northern) blot for SCIP and Brn-5 in Schwann cells; assay type: cell-based, Sprague-Dawley rats; settings: 1 μM GM-284, 48 h, growth-factor-starved Schwann cells
# Method: To further assess the ability of GM-284 to regulate these genes, Schwann cells were maintained in DMEM containing FCS, and without forskolin or GGF, for 48 h, to rest the cells. Thereafter, 1 μM GM-284 was added for an additional 48 h. Total RNA was isolated, run on a denaturing agarose gel, transferred to a nylon filter, and hybridized with probes complimentary to either SCIP (panel a) or Brn-5 (panel b). Cyclophilin RNA was probed as a loading control.
# 20 μg of total RNA was prepared as previously described (Wu et al., The POU gene brn-5 is induced by neuregulin and is restricted to myelinating Schwann cells. Mol. Cell Neurosci., 17:683-95, 2001). Thereafter, total RNA was separated on 1% MOPS-formaldehyde agarose gels, transferred to MAGNA nylon transfer membrane (MSI), UV cross-linked (120 mJ/cm 2) using a UV crosslinker (FB-UVXL-1000, Fisher Biotech), and hybridized with ^32P-dCTP random-labeled (RTS RadPrime DNA Labeling System, Gibco BRL), probes purified by Sephadex G-50 column (Pharmacia, Peapack, N.J.).
# The Brn-5 probe contains the rat Brn-5 coding region (generated by PCR), and was kindly provided by Dr. Bogi Andersen at the University of California at San Diego. This probe is 93% identical to the mouse Brn-5 mRNA. The SCIP probe was a 1.10-kb SmaI cDNA fragment from mouse SCIP DNA. […]
compound,measurement,setting,value
CCC(C)(C)C(=O)C(=O)N1CCC[C@H]1c1nnc([C@@H]2CCCN2C(=O)C(=O)C(C)(C)CC)o1 [GM-284],neuritogenesis of PC12 cells co-cultured with Schwann cells,[1],extensive neuritogenesis
same,SCIP and Brn-5 RNA expression relative to vehicle-treated cells,[2],significantly induced; also recorded: induces Schwann cell expression of SCIP (Oct-6) and Brn-5
